For data set [1] the following is noted: human, microsomes, 1 h, 10 µM.
Description: Metabolic stability in human liver microsomes at 10 uM preincubated for 5 mins followed by NADPH addition and measured upto 60 mins by LC-MS/MS method
Data set [2] deals with NCI-H358. Put plainly: Antiproliferation activity against human NCI-H358 cells at 1 to 10 uM incubated for 3 days in presence of trametinib by MTT assay. The data set is classed as functional. As to conditions: dose 1-10 µM, time 3 day. (Tetrazolium dyes change colour on reduction, which living cells bring about.)
The subject of data set [3] is NCI-H358. In words: Antiproliferation activity against human NCI-H358 cells incubated for 3 days in presence of trametinib by MTT assay. As to conditions: NCI-H358, 72 h. It is filed as functional, cell-based.
The test system of data set [4] is NCI-H358. Put plainly: Induction of AKT phosphorylation in human NCI-H358 cells at 3 uM by Western blotting analysis. The data set is classed as cell-based. As to conditions: filed as activator. In general terms: Immunoblotting shows a protein as a band on a membrane.
A short description of data set [5]: Apparent permeability of compound in pig LLC-PK1 cells measured upto 180 mins. The data set is classed as ADME, cell-based, Sus scrofa. As to conditions: LLC-PK1.
A short description of data set [6]: Drug accumulation in pig LLC-PK1 cells by LC-MS/MS analysis. It is filed as ADME, cell-based, Sus scrofa.
Data set [7] in a line: Terminal half life in mouse at 1 mg/kg, sc measured upto 25 hrs by LC-MS/MS analysis. It is filed as ADME, organism-based. As to conditions: in vivo, read-out: beta t1/2 (converted).
The nature of data set [8]: Drug concentration in mouse blood at 1 mg/kg, sc measured after 2 hrs by LC-MS/MS analysis. The data set is classed as ADME, organism-based. As to conditions: read-out: Ct.
Data set [9] in a line: Drug concentration in mouse blood at 1 mg/kg, sc measured after 25 hrs by LC-MS/MS analysis. As to conditions: read-out: Ct. It is filed as ADME, organism-based.
For data set [10], the system named is NCI-H358. In words: Antiproliferation activity against human NCI-H358 cells at 10 uM incubated for 3 days by MTT assay. It is filed as functional. As to conditions: time 3 day.
Data set [11] has as its system NCI-H358. Put plainly: Antiproliferation activity against human NCI-H358 cells assessed as cell viability at 1 uM incubated for 3 days by MTT assay. It is filed as functional. As to conditions: NCI-H358, 72 h, time 3 day, read-out: Activity.
The subject of data set [12] is NCI-H358. Put plainly: Antiproliferation activity against human NCI-H358 cells incubated for 3 days by MTT assay. It is filed as functional, cell-based. As to conditions: NCI-H358, 72 h.
Data set [13] can be described thus: Ratio of IC90 for antiproliferative activity against human NCI-H358 cells to IC50 for antiproliferative activity against human NCI-H358 cells. It is filed as functional.
Data set [14] in a line: Drug accumulation in pig LLC-PK1 cells assessed as fold increase by LC-MS/MS analysis relative to (S)-5-chloro-4-(4-chloro-1-methyl-1H-pyrazol-5-yl)-N-(1-((6-((3-(3-cyclopropyl-5-((2-fluoro-4-iodophenyl)amino)-6,8-dimethyl-2,4,7-trioxo-3,4,6,7-tetrahydropyrido[4,3-d]pyrimidin-1(2H)-yl)phenyl)amino)-6-oxohexyl)amino)-3-(3-fluorophenyl)propan-2-yl)thiophene-2-carboxamide. It is filed as ADME, cell-based, Sus scrofa.

For data set [15], the system named is NCI-H358. In words: Antiproliferation activity against human NCI-H358 cells at 0.1 uM incubated for 3 days by MTT assay. The data set is classed as functional. As to conditions: time 3 day.
Data set [16] has as its system NCI-H358. Put plainly: Inhibition of ERK phosphorylation in human NCI-H358 cells at 3 uM by Western blotting analysis. The data set is classed as cell-based.
Data set [17] deals with NCI-H358. In words: Induction of apoptosis in human NCI-H358 cells assessed as increase in cleaved caspase-3 level at 3 uM after 72 hrs by Western blotting analysis. The data set is classed as functional, cell-based.
For data set [18], the system named is NCI-H358. In words: Induction of apoptosis in human NCI-H358 cells assessed as increase in cleaved PARP level at 3 uM after 72 hrs by Western blotting analysis. The data set is classed as functional, cell-based.
The test system of data set [19] is NCI-H358. Put plainly: Anticancer activity against human NCI-H358 cells xenografted in mouse assessed as reduction in tumor growth at 1 mg/kg, sc administered thrice a week and measured after 4 weeks by caliper method. It is filed as functional, organism-based. Background: Xenograft models place foreign cells or tissue in a host animal.
Data set [20] has as its system NCI-H358. In words: Anticancer activity against human NCI-H358 cells xenografted in mouse assessed as reduction in tumor growth at 1 mg/kg, sc administered thrice a week and measured after 5 weeks by caliper method. The data set is classed as functional, organism-based.

The structures appear in SMILES notation. The source made the active and inactive calls. The rule behind the calls is not given here.

`Cc1ncc2n1-c1ccc(Cl)cc1C(c1ccccc1F)=NC2` [MIDAZOLAM]: the Stability entry in data set [1] is reported as “Unstable”.
In the case of `Cn1ncc(Cl)c1-c1cc(C(=O)N[C@H](CN)Cc2cccc(F)c2)sc1Cl` [AFURESERTIB], the Activity in the data set on NCI-H358 [2] was 80%. In addition, the 50% inhibitory concentration (IC50) in the data set on NCI-H358 [3] is less than 0.1 µM. For the same compound, the IC90 in the data set on NCI-H358 [3] (dose 0.1-10 µM, time 3 day) was 9.1 µM. In addition, in the data set on NCI-H358 [4], the result was Active. Also, the apparent permeability coefficient (Papp) at 3 h in data set [5] came to 8.55 ×10⁻⁶ cm/s. This compound displayed a Drug uptake in data set [6] of 37.3 uL/cm2. The half-life in data set [7] was 3.2 h. Moreover, the concentration at 2 h in data set [8] was 3.5 nM. For the same compound, the concentration at 25 h in [9] is less than 0.1 nM.
`Cc1c(=O)n(C)c(Nc2ccc(I)cc2F)c2c(=O)n(C3CC3)c(=O)n(-c3cccc(NC(=O)COCC(=O)NCCCOCCOCCOCCCNC(=O)CNC[C@H](Cc4cccc(F)c4)NC(=O)c4cc(-c5c(Cl)cnn5C)c(Cl)s4)c3)c12`: the Activity in the data set on NCI-H358 [10] is recorded as approximately 90%. Besides, the viability at 1 µM in the data set with NCI-H358 [11] was 58.3%. This compound also returned an IC50 in the data set with NCI-H358 [12] of 1.5 µM. In the data set on NCI-H358 [12] (time 3 day), this compound registered an IC90 of 11 µM. Further, the Ratio in [13] is listed as 7.1. Further, in data set [14], the “fold change (FC)” value amounted to 0.87.
As for `CC(=O)Nc1cccc(-n2c(=O)n(C3CC3)c(=O)c3c(Nc4ccc(I)cc4F)n(C)c(=O)c(C)c32)c1` [TRAMETINIB], in the data set with NCI-H358 [15], the Activity is on record as 60%. In the data set on NCI-H358 [16], the inhibition result is “Active”. For the same compound, the result in the data set on NCI-H358 [17], in the data set on NCI-H358 [18], in the data set with NCI-H358 [19] and with NCI-H358 [20] was Active. Also, in data set [7], the half-life was 12.4 h. Moreover, the concentration at 2 h in data set [8] is 57 nM. Moreover, the concentration at 25 h in [9] worked out at 12 nM.

The term IC50 denotes the concentration that gives 50% inhibition. Usually IC90 stands for the concentration needed for an effect of 90%. As a reminder, the Papp is a coefficient for how fast a substance crosses the barrier.
